Results taken from patent US10059733B2 (NUCORION PHARMACEUTICALS, INC., priority 2014, dated 2018).
Like-named read-outs stand apart in the source and are kept apart here.

Legend:
Huh7 = assay: TC50 assay with human cancer cell lines, 96 h: Huh7; assay type: cell-based
Procedure: (§3) Huh7 cells were maintained at 37° C. in a humidified atmosphere at 5% CO2 in DMEM containing 10% FBS. […] The cells were then treated with each compound at concentrations ranging from 500 μM to 0 μM in triplicate in DMEM media containing 2% FBS and 0.5% DMSO and without phenol red. After 48 h of treatment at 37° C., the relative number of living cells in each well was determined by using the CellTiter 96 system (Promega) according to the manufacturer's instructions. The 3-(4,5-dimethylthiazol-2-yl)-5-(3-carboxymethoxyphenyl)-2-(4-sulfophenyl)-2H-tetrazolium (MTS) and phenazine methosulfate (PMS) reagents were added to each well of the 96-well plate and the plate was incubated at 37° C. for approximately 2 h. The absorbance at 490 nm and 650 nm in each well was then determined by using a Flexstation 3 microplate reader (Molecular Dynamics). The absorbance determined at 650 nm was then subtracted from the absorbance determined at 490 nm to correct for light scattering. The corrected absorbance values representing the relative number of live cells in each condition were then plotted as a function of compound concentration, and the data were then fit to the following sigmoidal Emax equation by using Kaleidagraph: y=(Emax*x^Slope)/(TC50^Slope+x^Slope) where y is the relative corrected absorbance value, Emax is the maximum relative inhibition, x is the compound concentration, TC50 is the concentration of the compound at which the total cell population is reduced by 50%, and Slope is the slope of the curve.
(§4) Huh7, HEPG2, HEK293, MCF-7 and BxPC3 cell lines were maintained at 37° C. in a humidified atmosphere at 5% CO2 in DMEM containing 10% FBS. […] The cells were then treated with each compound at concentrations ranging from 500 μM to 0 μM in triplicate in DMEM media containing 2% FBS and 0.5% DMSO and without phenol red.

HEK293 = assay: TC50 assay with human cancer cell lines, 96 h: HEK293; assay type: cell-based
Procedure: as §3, §4

[1] = TC50 assay in Huh7 cells, 48 h (CellTiter 96); details: human
Procedure: (§1) Huh7 cells were maintained at 37° C. in a humidified atmosphere at 5% CO2 in DMEM containing 10% FBS. […] The cells were then treated with each compound at concentrations ranging from 500 μM to 0 μM in triplicate in DMEM media containing 2% FBS and 0.5% DMSO and without phenol red. After 48 h of treatment at 37° C., the relative number of living cells in each well was determined by using the CellTiter 96 system (Promega) according to the manufacturer's instructions. The 3-(4,5-dimethylthiazol-2-yl)-5-(3-carboxymethoxyphenyl)-2-(4-sulfophenyl)-2H-tetrazolium (MTS) and phenazine methosulfate (PMS) reagents were added to each well of the 96-well plate and the plate was incubated at 37° C. for approximately 2 h. The absorbance at 490 nm and 650 nm in each well was then determined by using a Flexstation 3 microplate reader ([…]). The absorbance determined at 650 nm was then subtracted from the absorbance determined at 490 nm to correct for light scattering. The corrected absorbance values representing the relative number of live cells in each condition were then plotted as a function of compound concentration, and the data were then fit to the following sigmoidal Emax equation by using Kaleidagraph: y=(Emax*x^Slope)/(TC50^Slope+x^Slope) where y is the relative corrected absorbance value, Emax is the maximum relative inhibition, x is the compound concentration, TC50 is the concentration of the compound at which the total cell population is reduced by 50%, and Slope is the slope of the curve.
The data in Table 1 were determined for cells exposed to drug for 48 h. The IC50 is the concentration of each compound necessary to inhibit the replication of the HCV luciferase replicon to 50%. “TC50,” refers to toxic concentration necessary to reduce the cell population by 50%. All compounds were purified by HPLC.

HEPG2 = assay: TC50 assay with human cancer cell lines, 96 h: HEPG2; assay type: cell-based; details: HepG2, 96 h, read-out: TC50 HEPG2 (μM)
Procedure: as §3, §4

HCV luciferase replicon [2] = assay: IC50 assay: inhibition of the HCV luciferase replicon in Huh7 cells; assay type: cell-based; details: for IC50: Hepatitis C virus; for Therapeutic Index (TC50/IC50): TC50 in Huh7 / IC50 HCV replicon, 48 h
Procedure: After 48 h of treatment at 37° C., the media in each well was removed, the cells were gently washed once with phosphate buffered saline (PBS) and subsequently lysed by the addition of Glo Lysis Buffer (Promega). After a 15 min incubation at room temperature to allow for complete cell lysis, Bright-Glo luciferase reagent (Promega) was added to each well and the relative luciferase activity in each well was determined by using a Glowmax 96 microplate luminometer (Promega).
IC50 values determined using the above methods for inhibition of the HCV luciferase replicon in Huh7 cells are set forth in Table 1.
All compounds were purified by HPLC.

PK9 cells = assay: TC50 assay in PK9 cells, 48 h; details: Homo sapiens, PK9, 48 h, read-out: TC50 (μM) in PK9 cells at 48 hr
Procedure: as §1
(§2) PK9 and RPK9 cells were maintained at 37° C. in a humidified atmosphere at 5% CO2 in Roswell Park Memorial Institute (RPMI) media containing 10% FBS. […] The cells were then treated with each compound at concentrations ranging from […] to 0 μM in triplicate in RPMI media containing 2% FBS and 0.5% DMSO and without phenol red. […] The RPK9 cells were derived from the parental PK9 cell line, and are deficient for dCK activity due to the partial deletion of the dCK gene.

RPK9 cells = assay: TC50 assay in gemcitabine resistant (dCK deficient) RPK9 cells, 48 h; details: read-out: TC50 (μM) in RPK9 cells at 48 hr
Procedure: as §1, §2

MCF-7 = assay: TC50 assay with human cancer cell lines, 96 h: MCF-7; assay type: cell-based
Procedure: as §3, §4

BxPC3 = assay: TC50 assay with human cancer cell lines, 96 h: BxPC3; assay type: cell-based
Procedure: as §3, §4

HCV luciferase replicon [3] = assay: Isobologram analysis of synergism with antiviral compound in HCV luciferase replicon; assay type: cell-based
Procedure: Isobologram analysis was conducted to assess the potential synergistic interaction of representative disclosed compounds with representative antiviral compounds. The isobolgram analysis was conducted as previously described by Chou and Talalay (see Chou T. C. and Talalay P. “Analysis of combined drug effects: a new look at a very old problem.” Trends Pharmacol Sci 1983; 4:450-4; and Chou T. C. and Talalay P. “Quantitative analysis of dose-effect relationships: the combined effects of multiple drugs or enzyme inhibitors.” Adv Enzyme Regul 1984; 22:27-55; both of which are incorporated herein by reference in their entirety). The definitions of synergism are those described by Chou (see Chou, T. C. (2006) Theoretical basis, experimental design, and computerized simulation of synergism and antagonism in drug combination studies. Pharmacol Rev. 58(3):621-81, which is incorporated herein by reference in its entirety).
In the synergism studies described herein, the antiviral compound shown in Table 6 was assessed in combination with a representative disclosed compound, Compound 1.

[4] = Huh-7, 96 h, read-out: TC50 Huh7 (μM)
[5] = HEK293, 96 h, read-out: TC50 HEK293 (μM)
[6] = MCF7, 96 h, read-out: TC50 MCF-7 (μM)
[7] = BXPC-3, 96 h, read-out: TC50 BxPC3 (μM)
[8] = Huh-7, Huh7 cells containing HCV luciferase replicon, 48 h exposure, read-out: IC50

Row | SMILES | Therapeutic Index (TC50/IC50) (HCV luciferase replicon [2]) | CC50 at 48 h ([1]; Huh7 cells) [µM] | IC50 (HCV luciferase replicon [2]; [8]) [µM] | also measured
1 | COc1cc(C(=O)Nc2ccn([C@@H]3O[C@H](CO[P@@](=O)(N[C@@H](C)C(=O)OC(C)C)Oc4ccccc4)C(O)C3(F)F)c(=O)n2)cc(OC)c1OC (stereo in doubt) [Compound 3] | 210 |  |  | CC50 (Huh7; [4]): 8.37 µM; CC50 (HEK293; [5]): 1.1 µM; CC50 at 48 h [1]: 57.5 ± 11.6 µM; CC50 (HEPG2): 1.57 µM; IC50 (HCV luciferase replicon [2]; Huh-7, 48 h): 0.274 ± 0.08 µM; CC50 (PK9 cells): 18.5 ± 11.9 µM; CC50 (RPK9 cells): 24.2 ± 4.2 µM; CC50 (MCF-7; [6]): 0.683 µM; CC50 (BxPC3; [7]): 4.07 µM
2 | CC(C)OC(=O)[C@H](C)NP(=O)(OC[C@H]1OC(n2ccc(NC(=O)C3Cc4ccccc4C3)nc2=O)C(F)(F)[C@@H]1O)Oc1ccccc1 (stereo in doubt) [Compound 13, (2S)-isopropyl 2-(((R)-(((2R,3R)-5-(4-(2,3-dihydro-1H-indene-2-carboxamido)-2-oxopyrimidin-1(2H)-yl)-4,4-difluoro-3-hydroxytetrahydrofuran-2-yl)methoxy)(phenoxy)phosphoryl)amino)-propanoate] | 684 |  |  | CC50 at 48 h [1]: 236 µM; IC50 (HCV luciferase replicon [2]; Huh-7, 48 h): 0.345 µM
3 | COC(=O)N[C@H](C(=O)N1CCC[C@H]1c1ncc(-c2ccc(-c3ccc(-c4cnc([C@@H]5CCCN5C(=O)[C@@H](NC(=O)OC)C(C)C)[nH]4)cc3)cc2)[nH]1)C(C)C [BMS-790052, carbamic acid, N,N′-[[1,1′-biphenyl]-4,4′-diylbis[1H-imidazole-5,2-diyl-(2S)-2,1-pyrrolidinediyl[(1S)-1-(1-methylethyl)-2-oxo-2,1-ethanediyl]]]bis-, C,C′-dimethyl ester, reference compound] |  |  |  | Combination Index (HCV luciferase replicon [3]; Compound 1 0.0 nM, BMS-790052 0.020 nM): 1.000; concentration of the single agent on the IC50 isobologram (Combination Index 1.000) (HCV luciferase replicon [3]; compound alone, other compound 0 nM): 0.020 nM
4 | CCCC(CCC)C(=O)Nc1ccn([C@@H]2O[C@@H]3CO[P@@](=O)(OC(C)C)O[C@H]3C2(F)F)c(=O)n1 [Compound 2, N-(1-((2S,4aR,6R,7aR)-7,7-difluoro-2-isopropoxy-2-oxidotetrahydro-4H-furo[3,2-d][1,3,2]-dioxaphosphinin-6-yl)-2-oxo-1,2-dihydropyrimidin-4-yl)-2-propylpentanamide] | 23.4 | 175 ± 23 | 7.48 | CC50 (PK9 cells): 716 ± 104 µM; CC50 (RPK9 cells): 537 ± 55 µM
5 | O=C(Nc1ccn(C2O[C@H](CO)[C@@H](O)C2(F)F)c(=O)n1)c1ccc2c(c1)CCCC2 (stereo partly drawn) [Compound 5, N-(1-((4R,5R)-3,3-difluoro-4-hydroxy-5-(hydroxymethyl)tetrahydrofuran-2-yl)-2-oxo-1,2-dihydropyrimidin-4-yl)-5,6,7,8-tetrahydronaphthalene-2-carboxamide] | 1,535 | 132 | 0.086 | 
6 | O=C(Nc1ccn(C2O[C@H](CO)[C@@H](O)C2(F)F)c(=O)n1)c1ccc2cc(Br)ccc2c1 (stereo partly drawn) [Compound 6, 6-bromo-N-(1-((4R,5R)-3,3-difluoro-4-hydroxy-5-(hydroxymethyl)tetrahydrofuran-2-yl)-2-oxo-1,2-dihydropyrimidin-4-yl)-2-naphthamide] | 400 | 74 | 0.185 | 
7 | O=C(Nc1ccn(C2O[C@H](CO)[C@@H](O)C2(F)F)c(=O)n1)c1ccc2ccccc2c1 (stereo partly drawn) [Compound 7, N-(1-((4R,5R)-3,3-difluoro-4-hydroxy-5-(hydroxymethyl)tetrahydrofuran-2-yl)-2-oxo-1,2-dihydropyrimidin-4-yl)-2-naphthamide] | 992 | 125 | 0.126 | 
8 | O=C(Nc1ccn(C2O[C@H](CO)[C@@H](O)C2(F)F)c(=O)n1)c1ccc2c(c1)C(=O)c1ccccc1C2=O (stereo partly drawn) [Compound 8, N-(1-((4R,5R)-3,3-difluoro-4-hydroxy-5-(hydroxymethyl)tetrahydrofuran-2-yl)-2-oxo-1,2-dihydropyrimidin-4-yl)-9,10-dioxo-9,10-dihydroanthracene-2-carboxamide] | 19,450 | 249 | 0.0128 | 
9 | O=C(Nc1ccn(C2O[C@H](CO)[C@@H](O)C2(F)F)c(=O)n1)c1cccc2c1CCCC2 (stereo partly drawn) [Compound 9, N-(1-((4R,5R)-3,3-difluoro-4-hydroxy-5-(hydroxymethyl)tetrahydrofuran-2-yl)-2-oxo-1,2-dihydropyrimidin-4-yl)-5,6,7,8-tetrahydronaphthalene-1-carboxamide] | 571 | 92 | 0.161 | 
10 | COc1ccc2cc(C(=O)Nc3ccn(C4O[C@H](CO)[C@@H](O)C4(F)F)c(=O)n3)ccc2c1 (stereo partly drawn) [Compound 10, N-(1-((4R,5R)-3,3-difluoro-4-hydroxy-5-(hydroxymethyl)tetrahydrofuran-2-yl)-2-oxo-1,2-dihydropyrimidin-4-yl)-6-methoxy-2-naphthamide] | 1,796 | 168 | 0.0935 | 
11 | O=C(Nc1ccn(C2O[C@H](CO)[C@@H](O)C2(F)F)c(=O)n1)C1Cc2ccccc2C1 (stereo partly drawn) [Compound 11, N-(1-((4R,5R)-3,3-difluoro-4-hydroxy-5-(hydroxymethyl)tetrahydrofuran-2-yl)-2-oxo-1,2-dihydropyrimidin-4-yl)-2,3-dihydro-1H-indene-2-carboxamide] | >50,000 | > 500 | 0.01 | 
12 | O=C(Nc1ccn(C2O[C@H](CO)[C@@H](O)C2(F)F)c(=O)n1)c1ccc2c(c1)CCC2 (stereo partly drawn) [Compound 12, N-(1-((4R,5R)-3,3-difluoro-4-hydroxy-5-(hydroxymethyl)tetrahydrofuran-2-yl)-2-oxo-1,2-dihydropyrimidin-4-yl)-2,3-dihydro-1H-indene-5-carboxamide] | 6,451 | 378 | 0.0586 | 
13 | O=C(Nc1ccn(C2O[C@H](CO)[C@@H](O)C2(F)F)c(=O)n1)c1ccc2c(c1)OCO2 (some centres unmarked) [Non-phosphorylated analog of Compound 4] | 7910 | 473 ± 74 | 0.0598 ± 0.0084 | CC50 (Huh7; Huh-7, 96 h of treatment, read-out: TC50 Huh7): 7.04 µM; CC50 (HEK293; HEK293, 96 h of treatment, read-out: TC50 HEK293): 4.09 µM; CC50 (RPK9 cells): > 500 µM; CC50 (MCF-7; MCF7, 96 h of treatment, read-out: TC50 MCF-7): 1.19 µM; CC50 (BxPC3; BXPC-3, 96 h of treatment, read-out: TC50 BxPC3): 0.72 µM
14 | CC(C)OC(=O)[C@H](C)N[P@](=O)(OC[C@H]1O[C@@H](n2ccc(N)nc2=O)C(F)(F)C1O)Oc1ccccc1 (some centres unmarked) [Phosphorylated analog of Gemcitabine] |  |  |  | CC50 (Huh7; [4]): 4.15 µM; CC50 (HEK293; [5]): 0.38 µM; CC50 (HEPG2): 0.89 µM; CC50 (PK9 cells): 11.2 µM; CC50 (RPK9 cells): 21 µM; CC50 (MCF-7; [6]): 0.115 µM; CC50 (BxPC3; [7]): 0.76 µM
